Data: patent US9487530B2, “Transient protection of normal cells during chemotherapy” (G1 Therapeutics, Inc., priority 2013, dated 2016)

What was measured:
[1] = system: 456 (395 non-mutant) kinases; assay: DiscoveRx KINOMEscan profiling; assay type: binding; settings: 1000 nM
Procedure: The compound was screened using a single concentration of 1000 nM (>1000 times the 1050 on Cdk4). Results from this screen confirmed the high potency against Cdk4 and high selectivity versus Cdk2.

[2] = Mouse pharmacokinetics, oral gavage and intravenous; assay type: in vivo
[3] = Metabolic stability in liver microsomes; assay type: in vitro ADME; settings: each of the species tested (human, monkey, dog, rat, mouse); 1 uM
Procedure: Human, mouse, and dog liver microsomes were purchased from Xenotech, and Sprague-Dawley rat liver microsomes were prepared by Absorption Systems. The reaction mixture comprising 0.5 mg/mL of liver microsomes, 100 mM of potassium phosphate, pH 7.4, 5 mM of magnesium chloride, and 1 uM of test compound was prepared. The test compound was added into the reaction mixture at a final concentration of 1 uM. An aliquot of the reaction mixture (without cofactor) was incubated in shaking water bath at 37 deg. C. for 3 minutes. The control compound, testosterone, was run simultaneously with the test compound in a separate reaction. The reaction was initiated by the addition of cofactor (NADPH), and the mixture was then incubated in a shaking water bath at 37 deg. C. Aliquots (100 μL) were withdrawn at 0, 10, 20, 30, and 60 minutes for the test compound and 0, 10, 30, and 60 minutes for testosterone. […] Test compound samples were analyzed using the Orbitrap high resolution mass spectrometer to quantify the disappearance of parent test compound and detect the appearance of metabolites. […] Half-lives were calculated using GraphPad software, fitting to a single-phase exponential decay equation.
When calculated half-life was longer than the duration of the experiment, the half-life was expressed as >the longest incubation time. The calculated half-life is also listed in parentheses. […]

[4] = system: A2058 cells (CDK4/6-independent cell line); assay: Cell cycle arrest (propidium iodide), A2058; assay type: cell-based; settings: 300 nM for 24 hours
Text: To test the ability of Cdk4/6 inhibitors to induce a clean G1-arrest, a cell based screening method was used consisting of two Cdk4/6-dependent cell lines (tHS68 and WM2664; Rb-positive) and one Cdk4/6-independent (A2058; Rb-negative) cell line. […] At the conclusion of the experiment, cells were harvested, fixed, and stained with propidium iodide (a DNA intercalator), which fluoresces strongly red (emission maximum 637 nm) when excited by 488 nm light. Samples were run on Dako Cyan flow cytometer and >10,000 events were collected for each sample. Data were analyzed using FlowJo 2.2 software developed by TreeStar, Inc.

[5] = system: Rb phosphorylation at Ser780 and Ser807/811; assay: Rb phosphorylation western blot; assay type: cell-based; settings: 300 nM; Rb-dependent cell lines (tHS68, WM2664); by 16 hours post exposure
Procedure: The Cdk4/6-cyclin D complex is essential for progression from G1 to the S-phase of the DNA cell cycle. This complex phosphorylates the retinoblastoma tumor suppressor protein (Rb). […] Samples were lysed and protein was assayed by western blot analysis. Rb phosphorylation was measured at two sites targeted by the Cdk4/6-cyclin D complex, Ser780 and Ser807/811 using species specific antibodies.

[6] = system: Rb-positive cell line (WM2664 or tHS68); assay: EdU proliferation, RB-intact Cdk4/6-dependent cell line; assay type: cell-based; settings: 24 hours treatment
Procedure: The effect of Cdk4/6 inhibition on proliferation was measured by EdU incorporation. An RB-intact, Cdk4/6-dependent cell line (WM2664 or tHS68) and a panel of RB-negative SCLC cell lines (H69, H82, H209, H345, NCI417, or SHP-77) were analyzed for growth inhibition by the various CDK4/6 inhibitors.

[7] = system: telomerized human diploid fibroblasts (tHDFs; tHS68); assay: Protection from chemotherapy-induced cell death, DNA damage and caspase activation in fibroblasts; assay type: cell-based
Procedure: Cell survival was determined by Cell TiterGlo assay per manufacturer's recommendations. For both γ-H2AX and caspase 3/7 assays, cells were plated and allowed to become adherent for 24 hours. […] For γ-H2AX, cells were harvested for analysis 8 hours after chemotherapy exposure. For the γ-H2AX assay, cells were fixed, permeabilized, and stained with anti-γ-H2AX as per the γ-H2AX Flow Kit (Millipore) and quantitated by flow cytometry. Data was analyzed using FlowJo 2.2 software developed by TreeStar, Inc. For the in vitro caspase 3/7 assay, cells were harvested 24 hours post chemotherapy treatment. Caspase 3/7 activation was measured using the Caspase-Glo® 3/7 Assay System (Promega) per manufacturer's recommendations.

blood cell counts = assay: 5FU-induced myelosuppression, repeated cycles; assay type: in vivo, mouse; settings: 150 mg/kg oral + 5FU 150 mg/kg every 21 days, 3 cycles; Day 10 of third cycle
Text: This was repeated every 21 days for 3 cycles. Blood samples were taken for hematology analysis on Day 10 of Cycles 1-3.

[8] = system: human renal proximal tubule cells; assay: gamma-H2AX and caspase 3/7 in renal proximal tubule cells with cisplatin; assay type: cell-based
Procedure: Normal renal proximal tubule epithelial cells were obtained from American Type Culture Collection (ATCC, Manassas, Va.). Cells were grown in an incubator at 37° C. in a humidified atmosphere of 5% CO2 in Renal Epithelial Cell Basal Media (ATCC) supplemented with Renal Epithelial Cell Growth Kit (ATCC) in 37° C. humidified incubator. […] For the γ-H2AX assay, cells were fixed, permeabilized, and stained with anti-γ-H2AX as per the γ-H2AX Flow Kit (Millipore) and quantitated by flow cytometry. Data was analyzed using FlowJo 2.2 software developed by TreeStar, Inc. Caspase 3/7 activation was measured using the Caspase-Glo 3/7 Assay System (Promega, Madison, Wis.) by following the manufacturer's instructions.

CN1CCN(c2ccc(Nc3ncc4cc5n(c4n3)C3(CCCCC3)CNC5=O)nc2)CC1 [T, 2′-((5-(4-methylpiperazin-1-yl)pyridin-2-yl)amino)-7′,8′-dihydro-6′H-spiro[cyclohexane-1,9′-pyrazino[1′,2′:1,5]pyrrolo[2,3-d]pyrimidin]-6′-one]
number of 395 non-mutant kinases inhibited ([1]; inhibitory threshold 65%): 92 (23.3%)
number of 395 non-mutant kinases inhibited ([1]; inhibitory threshold 90%): 31 (7.8%)
number of 395 non-mutant kinases inhibited ([1]; inhibitory threshold 99%): 6 (1.5%)
F (oral bioavailability) [2]: 80%
half-life in liver microsomes [3]: shorter half-life than PD0332991
S-phase peak [4]: does not cause a loss of the S-phase peak
Rb phosphorylation [5]: blocks Rb phosphorylation
proliferation (cells in S-phase by EdU) [6]: inhibits
cell survival (Cell TiterGlo) ([7]; in the presence of etoposide (5 uM) or carboplatin (100 uM)): dose dependent cell survival
DNA damage as measured by gamma-H2AX formation ([7]; prior to carboplatin, doxorubicin, etoposide, camptothecin or paclitaxel): attenuated DNA damage
caspase 3/7 activation ([7]; prior to carboplatin, doxorubicin, etoposide, camptothecin, and paclitaxel): robust decrease in caspase 3/7 activation in a dose-dependent manner
myelosuppression with repeated 5FU (blood cell counts): reduced the myelosuppression
caspase 3/7 activation ([8]; cisplatin 25 uM, 50 uM, or 100 uM): dose-dependent reduction in caspase 3/7 activation
DNA damage as measured by gamma-H2AX formation ([8]; in combination with 25 uM cisplatin): attenuated DNA damage
